Test results reported in US7973055B2, “Crystalline forms of a biphenyl compound” (Theravance, Inc., priority 2006, dated 2011).

Legend:
[1] = biological target: T1, hM3 receptor (CHO cells) (Homo sapiens, UniProt P20309); experiment: Blockade of agonist-mediated calcium release via FLIPR; type: cell-based; conditions: CHO cells stably expressing hM3, FLIPR; this or a similar assay
T1 construct: expressed in transfected cells
From the text: Muscarinic receptor subtypes (M1, M3 and M5 receptors), which couple to Gq proteins, activate the phospholipase C (PLC) pathway upon agonist binding to the receptor. As a result, activated PLC hydrolyzes phosphatyl inositol diphosphate (PIP2) to diacylglycerol (DAG) and […] (IP3), which in turn generates calcium release from intracellular stores, i.e., endoplasmic and sarcoplasmic reticulum. The FLIPR (Molecular Devices, Sunnyvale, Calif.) assay capitalizes on this increase in intracellular calcium by using a calcium sensitive dye (Fluo-4AM, Molecular Probes, Eugene, Oreg.) that fluoresces when free calcium binds. This fluorescence event was measured in real time by the FLIPR, which detected the change in fluorescence from a monolayer of cells cloned with human M1 and M3, and chimpanzee M5 receptors. Antagonist potency was determined by the ability of antagonists to inhibit agonist-mediated increases in intracellular calcium.
For FLIPR calcium stimulation assays, CHO cells stably expressing the hM1, hM3 and cM5 receptors were seeded into 96-well FLIPR plates the night before the assay was done. […]
To determine antagonist potency, the dose-dependent stimulation of intracellular Ca^2+ release for oxotremorine was first determined so that antagonist potency can later be measured against oxotremorine stimulation at an EC90 concentration. […]

[2] = biological target: T2, M3 muscarinic receptor subtype (hM3) (Homo sapiens, UniProt P20309); experiment: Radioligand binding assay ([3H]-NMS displacement, CHO cell membranes); conditions: [3H]-NMS 1 nM, this or a similar assay
T2 construct: expressed in transfected cells
T2 sequence (P20309 whole entry): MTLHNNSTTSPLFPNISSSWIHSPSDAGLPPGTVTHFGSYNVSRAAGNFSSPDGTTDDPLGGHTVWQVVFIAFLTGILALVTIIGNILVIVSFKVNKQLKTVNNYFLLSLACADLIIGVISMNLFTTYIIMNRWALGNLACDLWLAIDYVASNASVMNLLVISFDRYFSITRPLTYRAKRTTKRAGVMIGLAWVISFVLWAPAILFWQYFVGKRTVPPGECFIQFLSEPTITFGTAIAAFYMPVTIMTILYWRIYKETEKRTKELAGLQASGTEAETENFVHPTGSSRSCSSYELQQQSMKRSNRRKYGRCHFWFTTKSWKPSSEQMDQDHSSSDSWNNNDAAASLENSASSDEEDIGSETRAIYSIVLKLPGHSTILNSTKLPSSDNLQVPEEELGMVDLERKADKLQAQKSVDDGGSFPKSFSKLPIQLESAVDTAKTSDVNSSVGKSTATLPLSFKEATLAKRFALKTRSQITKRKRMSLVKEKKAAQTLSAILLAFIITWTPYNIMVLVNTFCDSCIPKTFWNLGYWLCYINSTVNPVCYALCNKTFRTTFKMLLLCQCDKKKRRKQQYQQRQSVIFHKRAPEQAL
Protocol: CHO cell lines stably expressing cloned human hM1, hM2, hM3 and hM4 muscarinic receptor subtypes, respectively, were grown to near confluency in medium consisting of HAM's F-12 supplemented with 10% FBS and 250 μg/mL Geneticin. The cells were grown in a 5% CO2, 37° C. incubator and lifted with 2 mM EDTA in dPBS. Cells were collected by 5 minute centrifugation at 650×g, and cell pellets were either stored frozen at −80° C. or membranes were prepared immediately. For membrane preparation, cell pellets were resuspended in lysis buffer and homogenized with a Polytron PT-2100 tissue disrupter (Kinematica AG; 20 seconds×2 bursts). Crude membranes were centrifuged at 40,000×g for 15 minutes at 4° C. […] The protein concentration of the membrane suspension was determined by the method described in Lowry, O. et al., Journal of Biochemistry 193:265 (1951). […]
Radioligand binding assays were performed in 96-well microtiter plates in a total assay volume of 100 μL. […] Filter plates were rinsed three times with wash buffer (10 mM HEPES) to remove unbound radioactivity. […] The plates were then counted in a PerkinElmer Topcount liquid scintillation counter (PerkinElmer Inc., Wellesley, Mass.). Binding data were analyzed by nonlinear regression analysis with the GraphPad Prism Software package (GraphPad Software, Inc., San Diego, Calif.) using the one-site competition model. […]

T1 sequence (P20309 whole entry): as above

Q: With CN(CCN1CCC(OC(=O)Nc2ccccc2-c2ccccc2)CC1)C(=O)c1cccc(C(=O)NCCNCc2ccc(O)cc2)c1 [compound of formula I, biphenyl-2-ylcarbamic acid 1-[2-({3-[2-(4-hydroxybenzylamino)ethylcarbamoyl]benzoyl}methylamino)ethyl]piperidin-4-yl ester] as the molecule, how does the Ki [1] read?
A: Its Ki is under 10 nM.

Q: What about the Ki [2] of the same molecule?
A: The Ki was under 5 nM.
